# From ChEMBL document CHEMBL1155995, “Pyrrole[2,3-d]azepino compounds as agonists of the farnesoid X receptor (FXR)” (Bioorg Med Chem Lett, 2009)
# Target: T1, Bile acid receptor (Homo sapiens, UniProt Q96RI1)
# T1 sequence (Q96RI1 whole entry): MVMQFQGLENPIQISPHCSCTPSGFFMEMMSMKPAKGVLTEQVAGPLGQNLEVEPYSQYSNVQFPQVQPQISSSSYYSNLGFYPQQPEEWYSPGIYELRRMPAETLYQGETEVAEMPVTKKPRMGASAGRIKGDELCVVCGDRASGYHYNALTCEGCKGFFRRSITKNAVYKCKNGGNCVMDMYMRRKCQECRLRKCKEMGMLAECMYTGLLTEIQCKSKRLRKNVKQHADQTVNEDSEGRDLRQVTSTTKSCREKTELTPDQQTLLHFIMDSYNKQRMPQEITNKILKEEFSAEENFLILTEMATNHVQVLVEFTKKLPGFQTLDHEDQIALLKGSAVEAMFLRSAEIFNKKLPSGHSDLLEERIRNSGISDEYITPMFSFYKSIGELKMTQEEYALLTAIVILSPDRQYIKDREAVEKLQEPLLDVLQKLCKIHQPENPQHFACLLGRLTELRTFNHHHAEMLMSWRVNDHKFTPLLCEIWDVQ
# Settings: not given
row,EC50 [nM],SMILES
1,6.3,CC(C)OC(=O)C1=CN(C(=O)c2ccc(F)c(F)c2)CC(C)(C)c2cc(C#N)[nH]c21
2,8.5,CC(C)OC(=O)C1=CN(C(=O)c2cccc(C(F)(F)F)c2)CC(C)(C)c2cc(C#N)[nH]c21
3,16,CC(C)OC(=O)C1=CN(C(=O)c2cccs2)CC(C)(C)c2cc(C#N)[nH]c21

# Tested on: not listed separately
# Assay: Aqueous solubility at pH 7.4
# Settings: aqueous
row,solubility [µg/mL],SMILES
1,31,CC(C)OC(=O)C1CN(C(=O)c2ccc(F)c(F)c2)CC(C)(C)c2cc(C#N)[nH]c21 (stereo not given)
2,> 100,CC(C)OC(=O)C1CN(C(=O)c2cccc(F)c2)CC(C)(C)c2cc(C#N)[nH]c21 (stereo not given)
3,> 100,CC(C)OC(=O)C1CN(C(=O)C2CCOCC2)CC(C)(C)c2cc(C#N)[nH]c21 (stereo not given)
4,21,CC(C)OC(=O)C1CN(C(=O)c2ccc(C#N)cc2)CC(C)(C)c2cc(C#N)[nH]c21 (stereo not given)
5,5,CC(C)OC(=O)C1CN(C(=O)c2ccc(Cl)cc2)CC(C)(C)c2cc(C#N)[nH]c21 (stereo not given)
6,> 100,CC(C)OC(=O)C1CN(C(=O)C2CCCCC2)CC(C)(C)c2cc(C#N)[nH]c21 (stereo not given)
7,17,CC(C)OC(=O)C1CN(C(=O)c2cccc(Cl)c2)CC(C)(C)c2cc(C#N)[nH]c21 (stereo not given)
8,> 100,CC(C)OC(=O)C1CN(C(=O)c2ccc(F)cc2)CC(C)(C)c2cc(C#N)[nH]c21 (stereo not given)

# Same assay, conditions: buffer
row,solubility,SMILES
1,Insoluble(BLD),CC(C)OC(=O)C1=CN(C(=O)C2CCCCC2)CC(C)(C)c2cc(C#N)[nH]c21
2,Insoluble(BLD),CC(C)OC(=O)C1=CN(C(=O)c2ccc(F)c(F)c2)CC(C)(C)c2cc(C#N)[nH]c21
3,Insoluble(BLD),CC(C)OC(=O)C1=CN(C(=O)c2cccc(Cl)c2)CC(C)(C)c2cc(C#N)[nH]c21
4,Insoluble(BLD),CC(C)OC(=O)C1=CN(C(=O)c2ccc(F)c(F)c2)CC(C)(C)c2c1[nH]c1ccccc21 [TUROFEXORATE ISOPROPYL]
5,Insoluble(BLD),CC(C)OC(=O)C1=CN(C(=O)c2cccc(C(F)(F)F)c2)CC(C)(C)c2cc(C#N)[nH]c21
6,Insoluble(BLD),CC(C)OC(=O)C1=CN(C(=O)c2cccs2)CC(C)(C)c2cc(C#N)[nH]c21
7,Insoluble(BLD),CC(C)OC(=O)C1=CN(C(=O)c2cccc(F)c2)CC(C)(C)c2cc(C#N)[nH]c21
8,Insoluble(BLD),CC(C)OC(=O)C1=CN(C(=O)c2ccc(F)cc2)CC(C)(C)c2cc(C#N)[nH]c21
9,Insoluble(BLD),CC(C)OC(=O)C1=CN(C(=O)c2ccc(C#N)cc2)CC(C)(C)c2cc(C#N)[nH]c21
